Results reported in ChEMBL document CHEMBL1649413, “Structure-activity relationship of 4(5)-aryl-2-amino-1H-imidazoles, N1-substituted 2-aminoimidazoles and imidazo[1,2-a]pyrimidinium salts as inhibitors of biofilm formation by Salmonella typhimurium and Pseudomonas aeruginosa” (J Med Chem, 2011).
Calls of active or inactive are those of the source. No cut-off for these calls is given here.

Columns and labels:
Salmonella typhimurium [1] = test: Antibiofilm activity in Salmonella Typhimurium ATCC 14028 assessed as inhibition of biofilm formation at 25 degC after 24 hrs; format: functional, organism-based, Salmonella enterica subsp. enterica serovar Typhimurium; conditions: Salmonella enterica, ATCC 14028, 24 h
Salmonella typhimurium [2] = test: Antimicrobial activity against Salmonella Typhimurium ATCC 14028 assessed as inhibition of planktonic growth at 20 uM at 25 degC after 24 hrs; format: functional, organism-based; conditions: Salmonella enterica subsp. enterica serovar Typhimurium
Pseudomonas aeruginosa [3] = test: Antimicrobial activity against Pseudomonas aeruginosa assessed as inhibition of planktonic growth at 20 uM at 25 degC after 24 hrs; format: functional, organism-based
Pseudomonas aeruginosa [4] = test: Antibiofilm activity in Pseudomonas aeruginosa assessed as inhibition of biofilm formation at 25 degC after 24 hrs; format: functional, organism-based
Salmonella typhimurium [5] = test: Antimicrobial activity against Salmonella Typhimurium ATCC 14028 assessed as inhibition of planktonic growth at 10 uM at 25 degC after 24 hrs; format: functional, organism-based; conditions: Salmonella enterica subsp. enterica serovar Typhimurium
Salmonella typhimurium [6] = test: Antimicrobial activity against Salmonella Typhimurium ATCC 14028 assessed as inhibition of planktonic growth at 40 uM at 25 degC after 24 hrs; format: functional, organism-based; conditions: Salmonella enterica subsp. enterica serovar Typhimurium
Pseudomonas aeruginosa [7] = test: Antimicrobial activity against Pseudomonas aeruginosa assessed as inhibition of planktonic growth at 40 uM at 25 degC after 24 hrs; format: functional, organism-based
Salmonella typhimurium [8] = test: Antimicrobial activity against Salmonella Typhimurium ATCC 14028 assessed as inhibition of planktonic growth at 4 uM at 25 degC after 24 hrs; format: functional, organism-based; conditions: Salmonella enterica subsp. enterica serovar Typhimurium
Pseudomonas aeruginosa [9] = test: Antimicrobial activity against Pseudomonas aeruginosa assessed as inhibition of planktonic growth at 10 uM at 25 degC after 24 hrs; format: functional, organism-based
Pseudomonas aeruginosa [10] = test: Antimicrobial activity against Pseudomonas aeruginosa assessed as inhibition of planktonic growth at 5 uM at 25 degC after 24 hrs; format: functional, organism-based
Salmonella typhimurium [11] = test: Antimicrobial activity against Salmonella Typhimurium ATCC 14028 assessed as inhibition of planktonic growth at 400 uM at 25 degC after 24 hrs; format: functional, organism-based; conditions: Salmonella enterica subsp. enterica serovar Typhimurium

Structure (SMILES) | IC50 (Salmonella typhimurium [1]) [µM] | inhibition (Salmonella typhimurium [2]) | inhibition (Pseudomonas aeruginosa [3]) | IC50 (Pseudomonas aeruginosa [4]) [µM] | inhibition (Salmonella typhimurium [5]) | inhibition (Salmonella typhimurium [6]) | inhibition (Pseudomonas aeruginosa [7]) | inhibition (Salmonella typhimurium [8]) | inhibition (Pseudomonas aeruginosa [9]) | inhibition (Pseudomonas aeruginosa [10]) | inhibition (Salmonella typhimurium [11])
CCCCCCCCn1c(-c2ccc(OC)cc2)cnc1N | 8.5 | Active | inactive | 1.2 | inactive |  |  |  |  |  | 
CCCCCCCCCCCCCn1c(-c2ccccc2)cnc1N | 6 |  | inactive | 27.3 | Active | Active | inactive | inactive |  |  | 
CCCCCCCCn1c(-c2cccc3ccccc23)cnc1N | 6.6 |  | Active | 17.6 | inactive |  |  | inactive | inactive |  | 
CCCCCCCCCCCCCn1c(-c2ccc(Cl)cc2)cnc1N | 19.5 | inactive |  | 33.9 |  | inactive |  |  |  |  | 
CCCCCCCC[n+]1c(-c2ccc(-c3ccc(-c4ccccc4)cc3)cc2)cn2cccnc21.[O-][Cl+3]([O-])([O-])[O-] | 5 |  |  |  | Active |  |  | inactive |  |  | 
CC(C)n1c(-c2ccccc2)cnc1N | 176 |  |  | 4.5 |  |  |  |  | inactive | inactive | 
CCCCCCCC[n+]1c(-c2ccc(OC)cc2)cn2cccnc21.[O-][Cl+3]([O-])([O-])[O-] | 34.8 | Active | inactive | 8.7 |  | Active | inactive |  | inactive |  | 
CCCCCCCCCCCCn1c(-c2ccc(-c3ccccc3)cc2)cnc1N | 167 |  |  | > 400 |  |  | inactive |  |  | inactive | 
CCCCCCCCCCCn1c(-c2ccc(Cl)cc2)cnc1N | 4.1 | Active |  | 44 | Active |  |  | inactive |  |  | 
CCCCCCn1c(-c2ccccc2)cnc1N | 39.7 |  | inactive | 19.1 |  |  | inactive |  |  |  | 
Nc1nc(-c2ccc(F)cc2)c(C(=O)Nc2ccccc2)[nH]1 | 182 |  |  |  |  | inactive |  | inactive |  |  | Active
Nc1nc(-c2ccccc2)c(-c2ccc(C(F)(F)F)cc2)[nH]1 | 29.2 |  |  |  |  | inactive |  | inactive |  |  | Active
CCCCCCCC[n+]1c(-c2ccc(SC)cc2)cn2cccnc21.[O-][Cl+3]([O-])([O-])[O-] | 20.7 | Active | inactive | 9.3 |  | Active | Active |  |  |  | 
Nc1ncc(-c2ccc(-c3ccccc3)cc2)n1C1CCCCCC1 | 12.5 | Active |  | 6.6 | Active | Active |  |  |  |  | 
CCCCCCCCCCCCCn1c(-c2ccc(-c3ccccc3)cc2)cnc1N | > 800 |  |  | > 400 |  |  | inactive |  |  | inactive | 
CCCCn1c(-c2ccccc2)cnc1N | 51.9 |  |  | 2.1 |  |  |  |  | inactive | inactive | 
Nc1ncc(-c2ccc(Cl)cc2)n1C1CCCCCCC1 | 12.9 | Active |  | 48.7 | inactive | Active |  |  |  |  | 
CCCCCCCCn1c(-c2ccc(Cl)c(Cl)c2)cnc1N | 3.7 |  |  |  | Active |  |  | inactive |  |  | 
CCCCCCCCn1c(-c2ccc(S(C)(=O)=O)cc2)cnc1N | 29.1 | inactive | inactive | 4.9 |  | Active |  |  |  |  | 
CCCCCCCC[n+]1c(-c2ccc(F)c(F)c2)cn2cccnc21.[O-][Cl+3]([O-])([O-])[O-] | 3.8 |  | Active | 12.7 | Active |  | Active | inactive | Active |  | 
CCCCCCCCn1c(-c2cccc(Br)c2)cnc1N | 11.2 | Active | inactive | 40.6 | inactive |  | Active |  |  |  | 

Structure (SMILES) | IC50 (Salmonella typhimurium [1]) [µM] | inhibition (Salmonella typhimurium [2]) | inhibition (Pseudomonas aeruginosa [3]) | IC50 (Pseudomonas aeruginosa [4]) [µM] | inhibition (Salmonella typhimurium [5]) | inhibition (Salmonella typhimurium [6]) | inhibition (Pseudomonas aeruginosa [7]) | inhibition (Salmonella typhimurium [8]) | inhibition (Pseudomonas aeruginosa [9]) | inhibition (Pseudomonas aeruginosa [10]) | inhibition (Salmonella typhimurium [11])
CCCCCCCCn1c(-c2ccc(F)cc2)cnc1N | 10.8 | Active | Active | 4.9 | inactive |  |  |  | Active | inactive | 
CCn1c(-c2ccccc2)cnc1N | 206 |  | inactive | 20.7 |  |  | inactive |  |  |  | 
CCCCCCCC[n+]1c(-c2ccc([N+](=O)[O-])cc2)cn2cccnc21.[O-][Cl+3]([O-])([O-])[O-] | 63.6 |  | inactive | 18.7 |  |  | Active |  | inactive |  | 
Nc1ncc(-c2ccc(Cl)cc2)n1C1CCCCC1 | 33.2 |  | inactive | 11.2 |  |  | inactive |  |  | inactive | 
CCCCCCCCn1c(-c2ccccc2)cnc1N | 11.9 | Active | inactive | 18.5 | inactive |  | inactive |  |  |  | 
CCCCCCCC[n+]1c(-c2ccc(F)cc2)cn2cccnc21.[O-][Cl+3]([O-])([O-])[O-] | 35.7 | inactive | inactive | 19.5 |  | inactive | Active |  |  |  | 
CCCCCCCn1c(-c2ccccc2)cnc1N | 12.2 |  | inactive | 6.8 |  |  | inactive |  |  | inactive | 
CCCCCCCCCCCn1c(-c2ccccc2)cnc1N | 7.2 |  | inactive | 16.3 | Active | Active |  | inactive | inactive |  | 
CCCCCCCCn1c(-c2ccc(-c3ccccc3)cc2)cnc1N | 3.3 | Active | inactive | 8.9 |  | Active |  | inactive | inactive |  | 
CCCCCCCn1c(-c2ccc(-c3ccccc3)cc2)cnc1N | 9.3 | Active | Active | 25.2 | inactive |  | Active |  |  |  | 
CCCCCCCC[n+]1c(-c2cccc(Br)c2)cn2cccnc21.[O-][Cl+3]([O-])([O-])[O-] | 7.3 | Active | inactive | 7 | inactive |  | Active |  |  |  | 
CCCCCCCCCCn1c(-c2ccc(Cl)cc2)cnc1N | 4.1 |  | inactive | 22.3 | Active |  | inactive | inactive |  |  | 
CCCCn1c(-c2ccc(-c3ccccc3)cc2)cnc1N | 21.1 | Active |  | 41.6 |  | Active |  |  |  |  | 
CCCCCCCCCn1c(-c2ccc(Cl)cc2)cnc1N | 4 | Active | Active | 8 | Active |  |  | inactive | inactive |  | 
Nc1ncc(-c2ccc(Cl)cc2)n1C1CCCCCC1 | 15.7 |  | inactive | 4 |  |  |  |  | inactive | inactive | 
O=[N+]([O-])c1ccc(-c2cn3cccnc3[n+]2C2CCCCCCCCCCC2)cc1.[O-][Cl+3]([O-])([O-])[O-] | 9.8 | inactive | Active | 15.1 | inactive |  | Active |  | inactive |  | 
Nc1ncc(-c2ccc(-c3ccccc3)cc2)n1C1CCCCC1 | 12.6 | Active |  | 69.7 | inactive | Active |  |  |  |  | 
CCCCCCCCCCn1c(-c2ccccc2)cnc1N | 6.1 | Active | inactive | 15 | Active |  |  | inactive | inactive |  | 
CCCCCCCCCCCCn1c(-c2ccc(Cl)cc2)cnc1N | 6.2 | inactive |  | 49.7 | inactive |  |  | inactive |  |  | 
Nc1ncc(-c2ccc(-c3ccccc3)cc2)n1C1CCCCCCC1 | 22.9 | Active | inactive | 3.2 |  |  | inactive |  | inactive | inactive | 
CCCCn1c(-c2ccc(Cl)cc2)cnc1N | 57.8 |  | inactive | 16.7 |  |  | inactive |  |  |  | 
